Source: PMC10490044, “Chromogenic Assay Is More Efficient in Identifying α-Amylase Inhibitory Properties of Anthocyanin-Rich Samples When Compared to the 3,5-Dinitrosalicylic Acid (DNS) Assay” (Molecules, 2023)
Converted amounts (≈) assume the structure as drawn. Where two headings read alike, the source gives them in different places. Values belong to the compound of their own block, whether it stands above or below them.

Assays:
[1] = target: T1, pancreatic α-amylase (PPA) (Sus scrofa, UniProt P00690); assay: Mode of inhibition / enzyme kinetics, Lineweaver–Burk plots with CNPG3; assay type: biochemical, porcine; settings: for mode of inhibition: CNPG3 0–5 mM, PPA 1 U/mL; for effect of inhibitor on Vmax: Lineweaver–Burk plot
T1 construct: purchased Sigma-Aldrich Co., Ltd., Dorset, UK
T1 sequence (P00690 16-511): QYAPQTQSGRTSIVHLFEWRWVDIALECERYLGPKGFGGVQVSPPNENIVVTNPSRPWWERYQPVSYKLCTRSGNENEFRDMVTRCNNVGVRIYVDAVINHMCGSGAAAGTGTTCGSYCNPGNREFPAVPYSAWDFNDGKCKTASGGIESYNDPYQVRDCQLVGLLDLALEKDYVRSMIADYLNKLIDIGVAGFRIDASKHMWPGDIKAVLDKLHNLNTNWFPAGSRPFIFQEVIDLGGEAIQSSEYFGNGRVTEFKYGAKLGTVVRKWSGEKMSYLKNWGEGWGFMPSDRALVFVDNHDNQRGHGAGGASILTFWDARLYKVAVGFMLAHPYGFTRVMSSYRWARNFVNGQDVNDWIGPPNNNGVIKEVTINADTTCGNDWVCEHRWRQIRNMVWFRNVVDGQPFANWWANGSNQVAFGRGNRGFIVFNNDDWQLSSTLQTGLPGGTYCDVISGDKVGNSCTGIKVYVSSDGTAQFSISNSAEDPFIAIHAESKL
Protocol: (§1) In preliminary experiments, the optimum enzyme and substrate concentrations for the assay were determined using different concentrations of α-amylase (0.25, 0.5, and 1 U/mL) and CNPG3 (0, 0.625, 1.25, 2.5, and 5 mM). The linearity of enzyme reaction was monitored over 20 min under optimized enzyme and substrate concentrations, and incubation time for enzymatic reaction was defined. […] The rate of enzymatic reaction (V) was calculated by dividing the change in absorbance (at 405 nm) over time. The Lineweaver–Burk double reciprocal plot was obtained by plotting the 1/V against reciprocal of substrate (1/[S]), and Km and Vmax were calculated.
A Lineweaver–Burk plot was constructed for every inhibitor, and Km and Vmax were calculated.
All experiments were conducted at least in triplicates and analysed using Prism software program v. 9 (GraphPad Software, San Diego, CA, USA). […] The IC50 values were then obtained from the respective curve. The mode of enzyme inhibition was graphically determined using the Lineweaver–Burk plot through nonlinear regression of all data sets at once using GraphPad Prism software.

[2] = target: T2, porcine pancreatic α-amylase (PPA) (Sus scrofa, UniProt P00690); assay: DNS assay, amylose as substrate; assay type: biochemical; settings: concentrations up to 435 μM
T2 construct: purchased Sigma-Aldrich Co., Ltd., Dorset, UK
T2 sequence (P00690 16-511): T1 sequence (P00690 16-511)
Protocol: The samples were then placed in a water bath (100 °C, 10 min) to stop the enzyme reaction, subsequently transferred to ice, cooled down, and centrifuged at 4000× g for 5 min.
In order to remove potentially interfering compounds such as anthocyanins and other polyphenols that might react with the DNS reagent, solid phase reaction (SPE) was applied [20]. Briefly, Oasis MAX cartridges (30 mg) were preconditioned (1 mL water, 1 mL methanol) and then dried under vacuum for 10 min. The samples that underwent the enzymatic reaction above were applied to the cartridge, and the flow through was collected. Then, 1 mL DNS reagent was added to each SPE-purified flow through sample (500 μL), and samples were heated for 10 min at 100 °C to aid the reaction. Subsequently, samples were cooled down to room temperature, diluted to an appropriate absorbance range, transferred to wells in 96-well plates (2 × 250 µL per sample), and absorbance was recorded at 540 nm using Tecan Spark 10 M multimode microplate reader (TECAN, Mannedorf, Switzerland). Enzyme inhibition was calculated as a percentage of the 100% activity control (absence of inhibitor) and considering individual sample background (absence of enzyme and substrate).

[3] = target: T2, porcine pancreatic α-amylase (PPA); assay: Direct chromogenic assay, CNPG3 as substrate; assay type: biochemical
Protocol: The inhibition of α-amylase activity was measured according to the method described by Kalita, Holm, LaBarbera, Petrash, and Jayanty with some modifications. […] This was followed by the addition of 50 µL of 2 mM CNPG3 substrate, diluted in phosphate buffer. The change in absorbance, indicating the release of p-nitrophenol as a reaction product, was recorded in 1 min intervals at 405 nm over a 10 min period (at 37 °C) using a Tecan Spark 10 M microplate reader. Reaction product scans (360–600 nm) were performed at the end of each experiment. Enzyme activity and inhibition (%) were calculated from the absorbance difference of each sample, in reference to the non-inhibited control.
as §1

pancreatic alpha-amylase = settings: cited from earlier work
human pancreatic amylase = target: human pancreatic amylase; design: method as in Xie et al. 28; settings: similar substrate; ref Xie et al. 28; cited from earlier work
α-amylase = target: T3, α-amylase (Sus scrofa, UniProt P00690); assay: α-Amylase inhibition by anthocyanin metabolites (assay not stated); assay type: biochemical; settings: high concentrations of 1000 μg/mL
T3 construct: purchased Sigma-Aldrich Co., Ltd., Dorset, UK
T3 sequence (P00690 16-511): T1 sequence (P00690 16-511)

[4] = target: T2, porcine pancreatic α-amylase (PPA); settings: cited from earlier work; for mode of inhibition: DNS method; for IC50: ref Sui, Zhang, and Zhou 35
human salivary amylase = settings: reference not given; cited from earlier work
[5] = extracts per total anthocyanin content

- Km value (Michaelis constant) of substrate ([1]; no inhibitor): 4.4 mg/mL
Structure (SMILES): O=[N+]([O-])c1ccc(O[C@H]2O[C@H](CO)[C@@H](O[C@H]3O[C@H](CO)[C@@H](O[C@H]4O[C@H](CO)[C@@H](O)[C@H](O)[C@H]4O)[C@H](O)[C@H]3O)[C@H](O)[C@H]2O)c(Cl)c1 [CNPG3, 2-chloro-4 nitrophenyl α-D-maltotrioside]

- DNS Assay % inhibition [2]: 7%
- IC50 [3]: 491 µM
- IC50 [3, 5]: 491 µM
Structure (SMILES): Oc1cc(O)c2cc(O)c(-c3ccc(O)c(O)c3)[o+]c2c1 [Cyanidin, cyanidin]
- IC50, DNS assay (pancreatic alpha-amylase; ref 27): 109.2 µg/mL

- IC50 [3]: 414 µM
- Direct Chromogenic Assay IC50 [3, 5]: 414 ± 2.6 µg/mL
- mode of inhibition [1]: competitive inhibitor
- effect of inhibitor on Vmax [1]: remained constant
Structure (SMILES): OC[C@H]1O[C@@H](Oc2cc3c(O)cc(O)cc3[o+]c2-c2ccc(O)c(O)c2)[C@H](O)[C@@H](O)[C@H]1O [Cyanidin-3-O-galactopyranoside]

Structure (SMILES): C[C@H]1O[C@H](O[C@H]2[C@H](O)[C@@H](O)[C@@H](O[C@H]3[C@H](O)[C@@H](O)C(O)O[C@@H]3CO)O[C@@H]2CO)[C@H](O)[C@@H](O)[C@@H]1N[C@H]1C=C(CO)[C@@H](O)[C@H](O)[C@H]1O (stereo partly shown) [acarbose]
- mode of inhibition [1]: uncompetitive enzyme inhibition
- effect of inhibitor on Vmax [1]: decreased
- IC50, DNS assay (pancreatic alpha-amylase; ref 15): 11.7 µg/mL (≈ 18.1 µM)
- IC50, DNS assay (pancreatic alpha-amylase; ref 27): 77.5 µg/mL (≈ 120 µM)
- IC50, human pancreatic amylase (human pancreatic amylase): 0.47 µg/mL (≈ 0.728 µM)

- inhibition of α-amylase (α-amylase): unable to determine inhibition
Structure (SMILES): O=C(/C=C/c1ccc(O)c(O)c1)O[C@@H]1C[C@](O)(C(=O)O)C[C@@H](O)[C@H]1O [chlorogenic acid]

Structure (SMILES): OC[C@H]1O[C@@H](Oc2cc3c(O[C@@H]4O[C@H](CO)[C@@H](O)[C@H](O)[C@H]4O)cc(O)cc3[o+]c2-c2ccc(O)c(O)c2)[C@H](O)[C@@H](O)[C@@H]1O [cyanidin-3,5-diglucoside]
- IC50, DNS assay (pancreatic alpha-amylase; ref 27): > 600 µg/mL
- mode of inhibition [4]: competitively

Structure (SMILES): OC[C@H]1O[C@@H](Oc2cc3c(O)cc(O)cc3[o+]c2-c2ccc(O)c(O)c2)[C@H](O)[C@@H](O)[C@@H]1O [cyanidin-3-glucoside]
- IC50, DNS assay (pancreatic alpha-amylase; ref 27): 145.5 µg/mL
- IC50 (human salivary amylase): 180 ± 20 µM
- mode of inhibition [4]: competitively
- IC50 [4]: 24 ± 3 µM

Structure (SMILES): C[C@@H]1O[C@@H](OC[C@H]2O[C@@H](Oc3cc4c(O)cc(O)cc4[o+]c3-c3ccc(O)c(O)c3)[C@H](O)[C@@H](O)[C@@H]2O)[C@H](O)[C@H](O)[C@H]1O [cyanidin-3-rutinoside]
- IC50 (pancreatic alpha-amylase; ref 15, read-out: IC50, α-amylase): 24.4 µM
- mode of inhibition [4]: competitively

- inhibition of α-amylase (α-amylase): unable to determine inhibition
Structure (SMILES): O=C(O)c1cc(O)c(O)c(O)c1 [gallic acid]

Structure (SMILES): COc1cc(-c2[o+]c3cc(O)cc(O)c3cc2O[C@@H]2O[C@H](CO)[C@@H](O)[C@H](O)[C@H]2O)cc(OC)c1O [malvidin-3-glucoside]
- IC50 (human salivary amylase): 675 ± 73 µM

Structure (SMILES): COc1cc(-c2[o+]c3cc(O)cc(O)c3cc2O[C@@H]2O[C@H](CO)[C@@H](O)[C@H](O)[C@H]2O)ccc1O [peonidin-3-glucoside]
- mode of inhibition [4]: competitively
- IC50 [4]: 75 ± 7 µM

Structure (SMILES): O=C(O)c1ccc(O)c(O)c1 [protocatechuic acid]
- inhibition of α-amylase (α-amylase): unable to determine inhibition
